These results are taken from PubChem BioAssay (NCI).

Test systems include OVCAR-3 ovarian; HOP-62 NSCLC; IGROV1 ovarian; NCI-H23 lung; CCRF-CEM leukemia; SK-OV-3 ovarian; NCI-H522 lung; COLO 205 colon; SF-539 CNS; SF-295 CNS.
Holding throughout (assay): inhibition of tumour cell growth, NCI panel, 48 h

The structures appear in SMILES notation. Values joined by “and” are separate entries in the source; they are usually repeats but may differ in a detail not shown here. Identical values can stand only once.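 96-well plates; 48 h exposure; 5 concentrations. Endpoints by linear interpolation between flanking doses. Not reached: highest tested concentration assigned. GI50 is the concentration that inhibits growth by half. Definition used: TGI = concentration required for complete inhibition of growth.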 Where only a bound is given, the exact number is not on record here.

With `COc1ccc(CNc2cnc3cc(N)cc(N)c3n2)cc1`, the GI50 in the experiment on OVCAR-3 ovarian was 24500 nM; in the experiment on HOP-62 NSCLC, 35900 nM; with IGROV1 ovarian, 11200 nM; with NCI-H23 lung it was 15100 nM; in the experiment with CCRF-CEM leukemia it was 24100 nM; in the experiment with SK-OV-3 ovarian it was 82.1 µM. Besides, the GI50 was 17900 nM with NCI-H522 lung, 33600 nM in the experiment on COLO 205 colon, 21700 nM with SF-539 CNS and 21900 nM with SF-295 CNS. The TGI in the experiment with OVCAR-3 ovarian is greater than 100 µM; in the experiment with HOP-62 NSCLC it was greater than 100 µM; in the experiment with IGROV1 ovarian, 29 µM; with NCI-H23 lung, 29.1 µM; with CCRF-CEM leukemia, greater than 100 µM; in the experiment with SK-OV-3 ovarian, greater than 100 µM. In addition, the TGI is 44.1 µM in the experiment on NCI-H522 lung, greater than 100 µM in the experiment with COLO 205 colon, 39.4 µM in the experiment with SF-539 CNS and 55.9 µM with SF-295 CNS.

For the compound `CN1CCN(Cc2ccc(NC(=O)c3cncc(C#Cc4cnn5ccccc45)c3)cc2C(F)(F)F)CC1`, the GI50 in the experiment with OVCAR-3 ovarian was 1430 nM; in the experiment on HOP-62 NSCLC, 939 nM; in the experiment on IGROV1 ovarian, 858 nM; with NCI-H23 lung it was 655 nM; in the experiment on CCRF-CEM leukemia, 202 nM; with SK-OV-3 ovarian it was 1.51 µM. In addition, the GI50 with NCI-H522 lung was 838 nM; in the experiment on COLO 205 colon it was 291 nM; in the experiment with SF-539 CNS, 518 nM; with SF-295 CNS, 916 nM. Besides, the TGI in the experiment on OVCAR-3 ovarian is 3.62 µM; in the experiment on HOP-62 NSCLC, 2.93 µM; in the experiment with IGROV1 ovarian, 3.61 µM; in the experiment on NCI-H23 lung it was 1.97 µM; in the experiment on CCRF-CEM leukemia, 1.67 µM; with SK-OV-3 ovarian it was 4.61 µM. Also, the TGI with NCI-H522 lung stood at 2.27 µM; in the experiment with COLO 205 colon, 1.05 µM; in the experiment on SF-539 CNS, 1.25 µM; in the experiment with SF-295 CNS, 3.35 µM.

As for `CN(C)CCNC(=O)c1cccc2ncc(-c3ccccc3)nc12`, the TGI in the experiment on OVCAR-3 ovarian was 66.8 µM; with HOP-62 NSCLC, 34.7 µM; in the experiment with IGROV1 ovarian it was greater than 74.6 µM; in the experiment on NCI-H23 lung, 32.2 µM; in the experiment on CCRF-CEM leukemia, 56.8 µM; in the experiment with SK-OV-3 ovarian, 82.6 µM. Moreover, the TGI in the experiment on NCI-H522 lung came to 21.1 µM; in the experiment with COLO 205 colon, 15.5 µM; with SF-539 CNS, 16.8 µM; with SF-295 CNS, 58.5 µM.

As for `COc1ccc(NC(=O)CCc2cc(C(C)(C)C)n[nH]2)cc1`, the TGI in the experiment with OVCAR-3 ovarian, with HOP-62 NSCLC, with IGROV1 ovarian, in the experiment on NCI-H23 lung, in the experiment with CCRF-CEM leukemia and in the experiment with SK-OV-3 ovarian was greater than 100 µM throughout. The TGI in the experiment with NCI-H522 lung, with COLO 205 colon, in the experiment with SF-539 CNS and in the experiment on SF-295 CNS was greater than 100 µM in each case.

As for `CC(C)(C)c1ccc(O)c(CN(Cc2cc(C(C)(C)C)ccc2O)C2CCCCC2)c1`, the TGI amounted to 34.9 µM in the experiment on OVCAR-3 ovarian; 46.5 µM in the experiment with HOP-62 NSCLC; 45.9 µM in the experiment with IGROV1 ovarian; 48.7 µM in the experiment with NCI-H23 lung; 99.9 µM in the experiment with CCRF-CEM leukemia; 47.8 µM with SK-OV-3 ovarian. Moreover, the TGI worked out at 33.7 µM with NCI-H522 lung, 6.81 µM in the experiment on COLO 205 colon, 31 µM in the experiment with SF-539 CNS and 34 µM in the experiment with SF-295 CNS.

As for `COC(=O)C(=O)C(C(=O)C(=O)Nc1ccc(C)cc1)c1nc2ccc(C(=O)c3ccccc3)cc2[nH]c1=O` (centres undefined), the TGI in the experiment on OVCAR-3 ovarian, in the experiment with HOP-62 NSCLC, in the experiment on IGROV1 ovarian, in the experiment on NCI-H23 lung, in the experiment on CCRF-CEM leukemia and in the experiment on SK-OV-3 ovarian was greater than 100 µM throughout. In addition, the TGI in the experiment on NCI-H522 lung, with SF-539 CNS and with SF-295 CNS was greater than 100 µM throughout.

As to `C/C=C(/C)C(=O)OC1C=C(CO)C(=O)C(OC(=O)C(C)(O)C(C)Cl)C1C(C)C` (centres undefined), the GI50 with OVCAR-3 ovarian was 648 nM; in the experiment on HOP-62 NSCLC it was 2100 nM; in the experiment on NCI-H23 lung, 1840 nM; in the experiment with CCRF-CEM leukemia, 327 nM; in the experiment with SK-OV-3 ovarian, 4.5 µM; with NCI-H522 lung, 603 nM. For the same compound, the GI50 in the experiment on COLO 205 colon is 1300 nM; with SF-539 CNS it was 1280 nM; in the experiment on SF-295 CNS it was 1940 nM. Moreover, the TGI worked out at 1.98 µM in the experiment on OVCAR-3 ovarian; 4.89 µM with HOP-62 NSCLC; 4.42 µM with NCI-H23 lung; 2.05 µM in the experiment with CCRF-CEM leukemia; 14.9 µM in the experiment on SK-OV-3 ovarian; 2.37 µM in the experiment with NCI-H522 lung. For the same compound, the TGI with COLO 205 colon was 2.85 µM; in the experiment with SF-539 CNS, 2.62 µM; in the experiment on SF-295 CNS it was 4.79 µM.

Turning to `O=C(c1ccccc1)c1c(CC(O)c2ccccc2)n(C(=O)c2ccccc2)c2ccccc12` (centres undefined), the TGI in the experiment on OVCAR-3 ovarian was greater than 100 µM; with HOP-62 NSCLC, greater than 100 µM; in the experiment with IGROV1 ovarian, greater than 100 µM; with NCI-H23 lung, 69.5 µM; in the experiment with CCRF-CEM leukemia, greater than 100 µM; in the experiment on NCI-H522 lung it was 64.7 µM. Besides, the TGI with COLO 205 colon, in the experiment with SF-539 CNS and in the experiment on SF-295 CNS was greater than 100 µM each time.

With `COc1ccc(/C=c2/sc3n(c2=O)NC(c2ccc(Cl)cc2)NN=3)cc1` (centres undefined), the TGI in the experiment with OVCAR-3 ovarian, with IGROV1 ovarian, with NCI-H23 lung, with CCRF-CEM leukemia, with SK-OV-3 ovarian and with NCI-H522 lung was greater than 100 µM in each case. Further, the TGI with COLO 205 colon, in the experiment with SF-539 CNS and in the experiment with SF-295 CNS was greater than 100 µM throughout.

Take `NC(=Nc1nc(-c2ccccn2)cc2ccccc12)c1ccccn1`: the GI50 with OVCAR-3 ovarian was 1.88 nM; in the experiment on HOP-62 NSCLC, 319 nM; in the experiment with IGROV1 ovarian it was 21.2 nM; in the experiment with NCI-H23 lung, 74.3 nM; with CCRF-CEM leukemia it was 2.29 nM; with SK-OV-3 ovarian, 0.263 µM. In addition, the results for the GI50 in the experiment on NCI-H522 lung, in the experiment with COLO 205 colon and in the experiment on SF-539 CNS were 45.8 nM, 1.95 nM and 189 nM, respectively. The TGI was greater than 100 µM with OVCAR-3 ovarian; 38.1 µM with HOP-62 NSCLC; greater than 24.1 µM in the experiment on IGROV1 ovarian; greater than 61.6 µM in the experiment with NCI-H23 lung; greater than 19.4 µM with SK-OV-3 ovarian; 0.743 µM and 2.08 µM with SF-539 CNS.

With `COC(=O)C(=O)C(C(=O)C=C(C)C)C(=O)C(=O)Nc1nc2ccc([N+](=O)[O-])cc2s1` (centres undefined), the TGI in the experiment with OVCAR-3 ovarian was greater than 100 µM; with HOP-62 NSCLC, greater than 100 µM; in the experiment on IGROV1 ovarian, 66.4 µM; in the experiment with NCI-H23 lung, greater than 100 µM; in the experiment on CCRF-CEM leukemia it was greater than 100 µM; with SK-OV-3 ovarian, greater than 100 µM. Besides, the TGI in the experiment with NCI-H522 lung was 78.9 µM; with COLO 205 colon, greater than 100 µM; in the experiment with SF-539 CNS, greater than 100 µM.
